Tested on: HCV replicon
Test: HCV replicon replication assay (NPTII ELISA)
Type: cell-based, Hepatitis C virus (Huh-7 cells)
Conditions: Hepatitis C virus, Huh-7, 72 h, inhibition of HCV replicon replication in Huh-7 HCV replicon-containing cells, three days incubation, NPT level by ELISA; read-out: EC50
Method: Compounds claimed herein are tested for the ability to inhibit viral replication of the Hepatitis C replicon in cultured cells in which the HCV replicon construct has been incorporated. The HCV replicon system was described by Bartenschlager, et. al (Science, 285, pp. 110-113 (1999)). The replicon system is predictive of in vivo anti-HCV activity; compounds that are active in humans uniformly evidence activity in the replicon assay.
In this assay HCV replicon containing cells are treated with different concentrations of the test compound to ascertain the ability of the test compound to suppress replication of the HCV replicon. As a positive control, HCV replicon-containing cells are treated with different concentrations of interferon alpha, a known inhibitor of HCV replication. The replicon assay system includes Neomycin Phosphotransferase (NPT) as a component of the replicon itself in order to detect the transcription of replicon gene products in the host cell. Cells in which the HCV replicon is actively replicating have high levels of NPT; the level of NPT is proportional to HCV replication. […] The NPT level of each sample is measured using a captured ELISA.
The HCV replicon contains, 5′-3′, the HCV-IRES, the neomycin phosphotransferase (neo) gene, the IRES of encephalomyocarditis virus, which directs translation of HCV sequences NS3 to NS5B, and the 3′-NTR. The sequence of the HCV replicon has been deposited in GenBank (Accession no. AJ242652).
The replicon is transfected into Huh-7 cells using standard methods such as electroporation.
The cells are then seeded onto 96-well plates at a density of 6000-7500 cells/100 microliters/well (6-7.5×10^5 cells/10 ml/plate). The plates are then incubated at 37° C. in a 5% CO2 incubator.
HCV replicon-containing cells are rinsed with once PBS once; 2 mls of trypsin are then added. Cells are incubated at 37° C. in a 5% CO2 incubator for 3-5 minutes. 10 mls of complete medium is added to stop the reaction. Cells are blown gently, put into a 15 ml tube, and spun at 1200 rpm for four minutes. The trypsin/medium solution is removed and 5 mls of medium (500 ml DMEM (high glucose)) from BRL catalog #12430-054; 50 mls 10% FBS, 5% Geneticin G418 (50 mg/ml, BRL catalog #10131-035), 5 ml MEM non-essential amino acids (100× BRL #11140-050) and 5 ml pen-strep (BRL #15140-148) is added. The cells and media are mixed carefully
Cells are plated with screening medium (500 ml DMEM (BRL #21063-029), 50 ml FBS (BRL #10082-147) and 5 ml MEM non-essential amino acid (BRL #11140-050) at 6000-7500 cells/100 μl/well of 96 well plate (6-7.5×10^5 cells/10 ml/plate). Plates are placed into 37° C. 5% CO2 incubator overnight.
The following morning, drugs (test compounds or interferon alpha) are diluted in 96 well U bottom plates with media or DMSO/media, depending on the final concentration chosen for screening. Generally for 6 concentrations of each test compounds ranging from 10 micromolar to 0.03 micromolar are applied. 100 μl of the test compound dilution is placed in wells of the 96 well plate containing the HCV replicon cells. Media without drug is added to some wells as a negative controls. DMSO is known to affect cell growth. Therefore, if drugs diluted in DMSO are used, all wells, including negative control (media only) and positive control (interferon alpha) wells, must contain the same concentration of DMSO, for single dose screening. The plates are incubated at 37° C. in a humidified 5% CO2 environment for three days.
On day four, the NTPII assay is quantitated. The medium is poured from the plates and the plates are washed once in 200 μl of PBS. The PBS is then decanted and the plates tapped in a paper towel to remove any remaining PBS. Cells are fixed in situ with 100 μl/well of pre-cooled (−20° C.) methanol:acetone (1:1) and the plates are placed at −20° C. for 30 minutes.
The fixing solution is poured from the plates and the plates allowed to air-dry completely (approximately one hour). […]

Compound	EC50
CCCCCOc1ccc(N(C(=O)OC)c2nc(-c3ccc(F)c(F)c3)cs2)cc1C(F)(F)F [Compound 56, methyl 4-(3,4-difluorophenyl)thiazol-2-yl(4-(pentyloxy)-3-(trifluoromethyl)phenyl)carbamate]	< 1000 nM
CCCCCCCCOc1ccc(N(C(=O)COC(C)=O)c2nc(-c3ccc(F)c(F)c3)cs2)cc1 [Compound 57, 2-((4-(3,4-difluorophenyl)thiazol-2-yl)(4-(octyloxy)phenyl)amino)-2-oxoethyl acetate]	< 1000 nM
CCCCCCCCOc1ccc(N(C(=O)C(=O)OC)c2nc(-c3ccc(F)c(F)c3)cs2)cc1 [Compound 58, methyl 2-((4-(3,4-difluorophenyl)thiazol-2-yl)(4-(octyloxy)phenyl)amino)-2-oxoacetate]	< 1000 nM
CCCCCCCCOc1ccc(N(C(=O)OC)c2nc(-c3ccc(F)c(F)c3)cs2)cc1 [Compound 59, methyl 4-(3,4-difluorophenyl)thiazol-2-yl(4-(octyloxy)phenyl)carbamate]	1000 to 10000 nM
CCCCCCCCOc1ccc(N(C(=O)COC(C)=O)c2nc(-c3ccc(F)cc3)cs2)cc1 [Compound 60, 2-((4-(4-fluorophenyl)thiazol-2-yl)(4-(octyloxy)phenyl)amino)-2-oxoethyl acetate]	< 1000 nM
CCCCCCCCOc1ccc(N(C(N)=O)c2nc(-c3ccc(F)cc3)cs2)cc1 [Compound 61, 1-(4-(4-fluorophenyl)thiazol-2-yl)-1-(4-(octyloxy)phenyl)urea]	1000 to 10000 nM
CCCCCOc1ccc(N(C(=O)CO)c2nc(-c3cccnc3)cs2)cc1C(F)(F)F [Compound 62, 2-hydroxy-N-(4-(pentyloxy)-3-(trifluoromethyl)phenyl)-N-(4-(pyridin-3-yl)thiazol-2-yl)acetamide]	< 1000 nM
CCCCCCCCOc1ccc(N(C(=O)C(C)OC(C)=O)c2nc(-c3ccc(C)nc3)cs2)cc1 (centres unmarked) [Compound 63, 1-((4-(6-methylpyridin-3-yl)thiazol-2-yl)(4-(octyloxy)phenyl)amino)-1-oxopropan-2-yl acetate]	< 1000 nM
CCCCCOc1ccc(N(C(=O)C(C)OC(C)=O)c2nc(-c3cccnc3)cs2)cc1C(F)(F)F (centres unmarked) [Compound 64, 1-oxo-1-((4-(pentyloxy)-3-(trifluoromethyl)phenyl)(4-(pyridin-3-yl)thiazol-2-yl)amino)propan-2-yl acetate]	< 1000 nM
CCCCCOc1ccc(N(C(=O)C(OC(C)=O)c2ccccc2)c2nc(-c3cccnc3)cs2)cc1C(F)(F)F (centres unmarked) [Compound 65, 2-oxo-2-((4-(pentyloxy)-3-(trifluoromethyl)phenyl)(4-(pyridin-3-yl)thiazol-2-yl)amino)-1-phenylethyl acetate]	< 1000 nM
CCCCCCCCOc1ccc(N(C(=O)C(=O)OCC)c2nc(-c3cccnc3)cs2)cc1 [Compound 66, ethyl 2-((4-(octyloxy)phenyl)(4-(pyridin-3-yl)thiazol-2-yl)amino)-2-oxoacetate]	< 1000 nM
CCCCCCCCOc1ccc(N(C(=O)COC(C)=O)c2nc(-c3cccnc3)cs2)cc1 [Compound 67, 2-((4-(octyloxy)phenyl)(4-(pyridin-3-yl)thiazol-2-yl)amino)-2-oxoethyl acetate]	< 1000 nM
CCCCCCCCOc1ccc(N(C(C)=O)c2nc(-c3cccnc3)cs2)cc1 [Compound 68, N-(4-(octyloxy)phenyl)-N-(4-(pyridin-3-yl)thiazol-2-yl)acetamide]	< 1000 nM
CCCCCOc1ccc(N(C(N)=O)c2nc(-c3ccc(F)cc3)cs2)cc1C(F)(F)F [Compound 69, 1-(4-(4-fluorophenyl)thiazol-2-yl)-1-(4-(pentyloxy)-3-(trifluoromethyl)phenyl)urea]	< 1000 nM
CCCCCOc1ccc(N(C(N)=O)c2nc(-c3cccnc3C)cs2)cc1C(F)(F)F [Compound 70, 1-(4-(2-methylpyridin-3-yl)thiazol-2-yl)-1-(4-(pentyloxy)-3-(trifluoromethyl)phenyl)urea]	< 1000 nM
CCCCCCCOc1ccc(N(C(N)=O)c2nc(-c3ccc(F)cc3)cs2)cc1 [Compound 71, 1-(4-(4-fluorophenyl)thiazol-2-yl)-1-(4-(heptyloxy)phenyl)urea]	< 1000 nM
CCCCCCCCOc1ccc(N(C(N)=O)c2nc(-c3cccnc3)cs2)cc1 [Compound 72, 1-(4-(octyloxy)phenyl)-1-(4-(pyridin-3-yl)thiazol-2-yl)urea]	< 1000 nM
CCCCCCCCOc1ccc(N(C(=O)NCC)c2nc(-c3cccnc3)cs2)cc1 [Compound 73, 3-ethyl-1-(4-(octyloxy)phenyl)-1-(4-(pyridin-3-yl)thiazol-2-yl)urea]	> 10000 nM
CCCCCCCCOc1ccc(N(C(=O)NC(C)(C)C)c2nc(-c3cccnc3)cs2)cc1 [Compound 74, 3-tert-butyl-1-(4-(octyloxy)phenyl)-1-(4-(pyridin-3-yl)thiazol-2-yl)urea]	1000 to 10000 nM
CCCCCOc1ccc(N(C(=O)NCC)c2nc(-c3cccnc3)cs2)cc1C(F)(F)F [Compound 75, 3-ethyl-1-(4-(pentyloxy)-3-(trifluoromethyl)phenyl)-1-(4-(pyridin-3-yl)thiazol-2-yl)urea]	< 1000 nM
CCCCCOc1ccc(N(C(=O)NC(C)(C)C)c2nc(-c3cccnc3)cs2)cc1C(F)(F)F [Compound 76, 3-tert-butyl-1-(4-(pentyloxy)-3-(trifluoromethyl)phenyl)-1-(4-(pyridin-3-yl)thiazol-2-yl)urea]	< 1000 nM
CCCCCOc1ccc(N(C(N)=O)c2nc(-c3ccc(C(=O)N(C)C)nc3)cs2)cc1C(F)(F)F [Compound 77, N,N-dimethyl-5-(2-(1-(4-(pentyloxy)-3-(trifluoromethyl)phenyl)ureido)thiazol-4-yl)picolinamide]	< 1000 nM
CCCCCCCCOc1ccc(N(C(N)=O)c2nc(-c3ccc(C(=O)N(C)C)nc3)cs2)cc1 [Compound 78, N,N-dimethyl-5-(2-(1-(4-(octyloxy)phenyl)ureido)thiazol-4-yl)picolinamide]	> 10000 nM
CCCCCCCOc1ccc(N(C(N)=O)c2nc(-c3ccc(C(=O)N(C)C)nc3)cs2)cc1 [Compound 79, 5-(2-(1-(4-(heptyloxy)phenyl)ureido)thiazol-4-yl)-N,N-dimethylpicolinamide]	> 10000 nM
CCCCCCCCOc1ccc(N(C(N)=O)c2nc(-c3ccncc3)cs2)cc1 [Compound 80, 1-(4-(octyloxy)phenyl)-1-(4-(pyridin-4-yl)thiazol-2-yl)urea]	> 10000 nM
CCCCCOc1ccc(N(C(=O)Nc2ccccc2)c2nc(-c3cccnc3)cs2)cc1C(F)(F)F [Compound 81, 1-(4-(pentyloxy)-3-(trifluoromethyl)phenyl)-3-phenyl-1-(4-(pyridin-3-yl)thiazol-2-yl)urea]	< 1000 nM
CCCCCCCCOc1ccc(N(CC(N)=O)c2nc(-c3ccc(OCC(N)=O)cc3)cs2)cc1 [Compound 82, 2-((4-(4-(2-amino-2-oxoethoxy)phenyl)thiazol-2-yl)(4-(octyloxy)phenyl)amino)acetamide]	> 10000 nM
NC(=O)N(c1ccc(F)c(C(F)(F)F)c1)c1nc(-c2cccnc2)cs1 [Compound 83, 1-(4-fluoro-3-(trifluoromethyl)phenyl)-1-(4-(pyridin-3-yl)thiazol-2-yl)urea]	< 1000 nM
COc1ccc(N(C(N)=O)c2nc(-c3cccnc3)cs2)cc1C(F)(F)F [Compound 84, 1-(4-methoxy-3-(trifluoromethyl)phenyl)-1-(4-(pyridin-3-yl)thiazol-2-yl)urea]	< 1000 nM

Source: patent publication US20070213301A1 (ACHILLION PHARMACEUTICALS, INC., priority 2006, published 2007)
